Data: US10392368B2, “Pyrazolo and triazolo bicyclic compounds as JAK kinase inhibitors” (THERAVANCE BIOPHARMA R&D IP, LLC, priority 2017, dated 2019)
Like-named read-outs stand apart in the source and are kept apart here.

How the values were obtained:
JAK1 = target: T1, JAK1 (Homo sapiens, UniProt P23458); test: Biochemical JAK1 kinase assay (LanthaScreen); conditions: for Ki: read-out: JAK 1 (pKi) (converted)
T1 construct: GST; purchased Life Technologies
How it was run: (§1)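 Values are pKi, calculated by Cheng-Prusoff from IC50 obtained by robust 4-parameter fitting of percent inhibition. The kinase reaction used GFP-STAT1 peptide in HEPES pH 7.5 buffer with MgCl2, EGTA and Brij-35, ATP-initiated after compound pre-incubation, 1 h at ambient temperature.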

JAK2 = target: T2, JAK2 (Homo sapiens, UniProt O60674); test: Biochemical JAK2 kinase assay (LanthaScreen); conditions: for Ki: read-out: JAK 2 (pKi) (converted)
T2 construct: GST; purchased Life Technologies
How it was run: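 GST-tagged recombinant JAK2 pre-incubated 1 h at ambient temperature with compound and GFP-STAT1 peptide in HEPES pH 7.5/MgCl2 buffer, then ATP added for a 1 h reaction with 1% DMSO. TR-FRET read after EDTA and Tb-anti-pSTAT1 (pTyr701) addition; IC50 from 4-parameter fit, converted to pKi by Cheng-Prusoff.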

Tyk2 = target: T3, Tyk2 (Homo sapiens, UniProt P29597); test: Biochemical Tyk2 kinase assay (LanthaScreen); conditions: for Ki: read-out: Tyk 2 (pKi) (converted)
T3 construct: GST; purchased Life Technologies
How it was run: as §1

[1] = system: IL-2 stimulated pSTAT5 in Tall-1 T cells; test: Cellular JAK3 potency assay: inhibition of IL-2 stimulated pSTAT5 in Tall-1 T cells; format: cell-based, human; conditions: for IC50: Homo sapiens, read-out: Tall-1 (pIC50) (converted)
How it was run: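 In human Tall-1 T cells, IL-2 (300 ng/ml final, 30 min) drives STAT5 phosphorylation after a 1 h compound pretreatment. Lysates are assayed for pSTAT5 by AlphaLisa, and IC50 derived from signal versus concentration is expressed as pIC50.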

JAK3 = target: T4, JAK3 (Homo sapiens, UniProt P52333); test: Biochemical JAK3 kinase assay (LanthaScreen); parameters: GST; purchased Life Technologies; conditions: for Ki: read-out: JAK 3 (pKi) (converted)
T4 sequence (P52333 1-1124): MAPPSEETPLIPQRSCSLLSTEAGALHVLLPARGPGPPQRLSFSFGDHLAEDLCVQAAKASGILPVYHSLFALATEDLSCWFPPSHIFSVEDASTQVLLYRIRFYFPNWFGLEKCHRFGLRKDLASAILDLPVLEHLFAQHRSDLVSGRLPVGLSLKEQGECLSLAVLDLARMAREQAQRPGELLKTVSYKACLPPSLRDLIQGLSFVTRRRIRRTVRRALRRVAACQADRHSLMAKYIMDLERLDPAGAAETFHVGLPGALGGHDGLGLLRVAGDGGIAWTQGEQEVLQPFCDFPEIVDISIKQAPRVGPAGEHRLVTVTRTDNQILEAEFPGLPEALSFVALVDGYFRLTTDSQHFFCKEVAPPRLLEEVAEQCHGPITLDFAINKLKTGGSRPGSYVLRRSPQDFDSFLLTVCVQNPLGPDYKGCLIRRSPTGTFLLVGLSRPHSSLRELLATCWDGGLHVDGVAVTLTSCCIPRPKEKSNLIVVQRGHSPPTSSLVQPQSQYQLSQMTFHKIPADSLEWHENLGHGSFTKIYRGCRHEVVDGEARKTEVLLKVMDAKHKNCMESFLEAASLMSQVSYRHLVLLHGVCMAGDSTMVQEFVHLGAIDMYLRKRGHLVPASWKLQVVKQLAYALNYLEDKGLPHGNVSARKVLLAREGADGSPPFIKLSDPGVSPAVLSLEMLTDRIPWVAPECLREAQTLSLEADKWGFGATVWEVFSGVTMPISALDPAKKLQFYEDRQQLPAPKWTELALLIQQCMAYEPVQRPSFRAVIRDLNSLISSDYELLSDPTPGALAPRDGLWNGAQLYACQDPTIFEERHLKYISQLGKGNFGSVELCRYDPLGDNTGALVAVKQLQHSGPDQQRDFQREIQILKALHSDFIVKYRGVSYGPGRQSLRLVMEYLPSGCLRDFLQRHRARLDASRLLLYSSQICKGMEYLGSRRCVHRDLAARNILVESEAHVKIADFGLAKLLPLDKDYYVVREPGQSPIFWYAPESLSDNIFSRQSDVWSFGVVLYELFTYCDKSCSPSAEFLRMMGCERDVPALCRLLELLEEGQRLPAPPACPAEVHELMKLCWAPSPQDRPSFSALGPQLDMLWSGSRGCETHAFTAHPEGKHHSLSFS
How it was run: as §1

[2] = selectivity: difference of pKi JAK3 and pKi JAK1
[3] = TALL-1, IL-2 stimulated pSTAT5, Tall-1 T cells
[4] = selectivity JAK3 over JAK1, difference of pKi
[5] = IL-2 stimulated pSTAT5, Tall-1 T cells
[6] = TALL-1, IL-2 stimulated pSTAT5 in Tall-1 T cells

T2 sequence (O60674 whole entry): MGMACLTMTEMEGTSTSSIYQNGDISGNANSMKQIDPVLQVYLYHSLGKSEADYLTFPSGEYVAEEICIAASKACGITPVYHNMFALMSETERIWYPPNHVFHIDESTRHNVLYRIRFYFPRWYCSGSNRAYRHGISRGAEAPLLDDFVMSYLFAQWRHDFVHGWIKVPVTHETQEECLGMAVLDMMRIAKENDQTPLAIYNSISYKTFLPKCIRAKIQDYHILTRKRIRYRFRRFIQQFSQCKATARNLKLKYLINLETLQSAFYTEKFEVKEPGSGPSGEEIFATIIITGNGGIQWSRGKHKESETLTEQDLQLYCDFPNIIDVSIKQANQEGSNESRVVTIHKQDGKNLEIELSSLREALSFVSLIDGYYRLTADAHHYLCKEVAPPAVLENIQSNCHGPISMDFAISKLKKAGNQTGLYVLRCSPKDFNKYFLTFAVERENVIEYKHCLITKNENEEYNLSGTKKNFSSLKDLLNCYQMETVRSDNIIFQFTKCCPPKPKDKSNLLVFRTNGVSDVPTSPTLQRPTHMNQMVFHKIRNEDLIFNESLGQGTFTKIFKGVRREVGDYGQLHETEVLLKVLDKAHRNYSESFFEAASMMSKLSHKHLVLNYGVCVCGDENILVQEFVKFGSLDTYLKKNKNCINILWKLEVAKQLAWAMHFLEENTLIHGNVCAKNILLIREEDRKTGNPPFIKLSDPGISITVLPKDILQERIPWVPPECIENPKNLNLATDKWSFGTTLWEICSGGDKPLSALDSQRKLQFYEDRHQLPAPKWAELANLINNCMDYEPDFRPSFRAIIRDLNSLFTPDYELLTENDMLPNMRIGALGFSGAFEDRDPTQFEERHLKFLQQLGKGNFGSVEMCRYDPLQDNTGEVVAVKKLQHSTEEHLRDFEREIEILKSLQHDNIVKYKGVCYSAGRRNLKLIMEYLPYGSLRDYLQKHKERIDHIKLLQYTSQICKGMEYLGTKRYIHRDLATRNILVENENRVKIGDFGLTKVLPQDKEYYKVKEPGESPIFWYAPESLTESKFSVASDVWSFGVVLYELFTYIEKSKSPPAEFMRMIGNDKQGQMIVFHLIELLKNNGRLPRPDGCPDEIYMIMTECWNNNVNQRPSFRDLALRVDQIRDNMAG
T3 sequence (P29597 whole entry): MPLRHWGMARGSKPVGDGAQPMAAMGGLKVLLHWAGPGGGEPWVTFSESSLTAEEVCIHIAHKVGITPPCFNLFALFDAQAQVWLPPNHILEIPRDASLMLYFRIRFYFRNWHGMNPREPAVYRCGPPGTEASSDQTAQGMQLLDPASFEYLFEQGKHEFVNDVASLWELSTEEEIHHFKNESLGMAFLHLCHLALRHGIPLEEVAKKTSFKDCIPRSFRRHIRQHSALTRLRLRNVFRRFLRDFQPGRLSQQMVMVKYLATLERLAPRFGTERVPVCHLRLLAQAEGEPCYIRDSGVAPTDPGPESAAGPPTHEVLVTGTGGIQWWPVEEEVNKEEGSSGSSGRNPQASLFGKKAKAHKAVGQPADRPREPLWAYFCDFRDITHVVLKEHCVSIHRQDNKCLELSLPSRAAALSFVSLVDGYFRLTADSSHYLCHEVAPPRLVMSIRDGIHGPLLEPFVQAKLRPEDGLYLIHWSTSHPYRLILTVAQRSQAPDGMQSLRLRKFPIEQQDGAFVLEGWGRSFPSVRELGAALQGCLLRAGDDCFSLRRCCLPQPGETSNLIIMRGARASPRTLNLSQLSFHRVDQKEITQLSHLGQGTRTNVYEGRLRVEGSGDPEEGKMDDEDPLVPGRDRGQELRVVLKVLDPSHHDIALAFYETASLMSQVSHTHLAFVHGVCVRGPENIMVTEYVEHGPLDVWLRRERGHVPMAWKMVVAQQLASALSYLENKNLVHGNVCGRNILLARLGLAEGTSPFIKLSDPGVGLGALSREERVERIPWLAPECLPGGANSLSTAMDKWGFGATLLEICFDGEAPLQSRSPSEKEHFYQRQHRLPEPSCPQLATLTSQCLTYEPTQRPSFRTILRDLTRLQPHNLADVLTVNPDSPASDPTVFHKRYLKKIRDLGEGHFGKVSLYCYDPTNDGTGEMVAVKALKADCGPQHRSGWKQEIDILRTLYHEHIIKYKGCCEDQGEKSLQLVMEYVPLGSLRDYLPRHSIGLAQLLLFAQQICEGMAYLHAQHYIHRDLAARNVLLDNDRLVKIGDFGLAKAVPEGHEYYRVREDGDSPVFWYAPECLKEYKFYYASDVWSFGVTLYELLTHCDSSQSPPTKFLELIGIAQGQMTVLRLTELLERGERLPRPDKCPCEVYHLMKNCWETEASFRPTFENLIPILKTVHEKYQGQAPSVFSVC
T1 sequence (P23458 whole entry): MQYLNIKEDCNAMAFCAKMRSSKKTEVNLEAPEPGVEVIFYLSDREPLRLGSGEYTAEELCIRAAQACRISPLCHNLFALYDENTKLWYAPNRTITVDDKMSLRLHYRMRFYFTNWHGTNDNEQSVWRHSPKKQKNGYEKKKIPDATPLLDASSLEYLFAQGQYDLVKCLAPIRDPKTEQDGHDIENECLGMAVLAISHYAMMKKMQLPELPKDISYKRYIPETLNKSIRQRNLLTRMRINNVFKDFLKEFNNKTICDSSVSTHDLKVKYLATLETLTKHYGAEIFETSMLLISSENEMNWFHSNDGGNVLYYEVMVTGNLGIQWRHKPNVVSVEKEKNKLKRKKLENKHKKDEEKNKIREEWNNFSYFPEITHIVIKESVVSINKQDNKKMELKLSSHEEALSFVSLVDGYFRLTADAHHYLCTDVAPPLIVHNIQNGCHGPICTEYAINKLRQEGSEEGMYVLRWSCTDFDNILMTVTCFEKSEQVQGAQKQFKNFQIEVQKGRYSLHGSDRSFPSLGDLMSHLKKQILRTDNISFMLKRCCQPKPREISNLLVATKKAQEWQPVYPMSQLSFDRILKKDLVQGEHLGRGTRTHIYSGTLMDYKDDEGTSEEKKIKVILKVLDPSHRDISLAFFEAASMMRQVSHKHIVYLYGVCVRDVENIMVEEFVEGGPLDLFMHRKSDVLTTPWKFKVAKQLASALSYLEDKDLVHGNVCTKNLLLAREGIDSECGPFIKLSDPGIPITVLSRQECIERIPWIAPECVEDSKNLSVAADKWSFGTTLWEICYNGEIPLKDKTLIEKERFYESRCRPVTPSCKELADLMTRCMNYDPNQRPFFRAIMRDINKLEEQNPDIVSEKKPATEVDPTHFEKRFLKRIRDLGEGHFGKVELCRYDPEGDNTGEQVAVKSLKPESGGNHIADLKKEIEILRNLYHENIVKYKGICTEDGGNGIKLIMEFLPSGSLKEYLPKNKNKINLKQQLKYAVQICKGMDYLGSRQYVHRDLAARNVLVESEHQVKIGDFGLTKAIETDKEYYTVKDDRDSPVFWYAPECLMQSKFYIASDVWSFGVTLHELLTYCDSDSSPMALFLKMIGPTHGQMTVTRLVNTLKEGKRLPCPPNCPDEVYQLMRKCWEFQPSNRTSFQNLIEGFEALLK

SMILES | JAK 1 (pKi) (JAK1) | JAK 2 (pKi) (JAK2) | Tyk 2 (pKi) (Tyk2) | Tall-1 (pIC50) ([1]; IL-2 stimulated pSTAT5 in Tall-1 T cells) | JAK 3 (pKi) (JAK3) | JAK3 (pKi)-JAK1 (pKi) (JAK3; [2]) | Ki (JAK1) [nM] | Ki (JAK2) [nM] | Ki (Tyk2) [nM] | IC50 [1, 3] [nM] | Ki (JAK3) [nM] | JAK3 (pKi)-JAK1 (pKi) (JAK3; [4]) | Tall-1 (pIC50) [1, 5] | IC50 [1, 6] [nM]
C=CC(=O)N1CC(CN(C)c2cc(-c3ccc(O)c(F)c3)cc3[nH]ncc23)C1 [Compound 4-7] | E (a pKi value of 7 or below (Ki of 100 nM or above)) | E (a pKi value of 7 or below (Ki of 100 nM or above)) | E (a pKi value of 7 or below (Ki of 100 nM or above)) | B (a pIC50 value between 6.7 (included) and 7.5 (IC50 between 200 nM and 32 nM)) | C (a pKi value between 8 and 9 (Ki between 10 nM and 1 nM)) | B (a value of 2.3 to 3) | – | – | – | – | – | – | – | –
CN(C)C/C=C/C(=O)N1CC(COc2cc(-c3ccc(O)cc3)cc3[nH]nc(C(F)(F)F)c23)C1 [Compound 18-12] | – | – | – | – | – | – | 10 to 100 | 10 to 100 | > 100 | 31.6 to 200 | 0.1 to 1 | B (a value of 2.3 to 3) | – | –
C=CC(=O)N1CC(CSc2cc(-c3ccc(O)c(Cl)c3)nc3[nH]ncc23)C1 [Compound 13-1] | E (a pKi value of 7 or below (Ki of 100 nM or above)) | E (a pKi value of 7 or below (Ki of 100 nM or above)) | E (a pKi value of 7 or below (Ki of 100 nM or above)) | – | B (a pKi value between 9 and 10 (Ki between 1 nM and 0.1 nM)) | – | – | – | – | – | – | A (a value of 3 or above) | B (a pIC50 value between 6.7 (included) and 7.5 (IC50 between 200 nM and 32 nM)) | –
C=CC(=O)N1CCCC(Oc2cc(-c3ccc(O)c(F)c3)cc3[nH]ncc23)C1 (stereo not drawn) [Compound 8-5] | E (a pKi value of 7 or below (Ki of 100 nM or above)) | D (a pKi value between 7 and 8 (Ki between 100 nM and 10 nM)) | E (a pKi value of 7 or below (Ki of 100 nM or above)) | – | A (a pKi value≥10 (Ki≤0.1 nM)) | – | – | – | – | – | – | A (a value of 3 or above) | A (a pIC50 value≥7.5 (IC50≤32 nM)) | –
C=CC(=O)N1CC[C@H](Oc2cc(-c3ccc(O)cc3F)cc3[nH]ncc23)C1 [Compound 1-17] | – | – | – | – | – | A (a value of 3 or above) | > 100 | 10 to 100 | > 100 | – | 0.1 to 1 | – | – | < 31.6
C=CC(=O)N1CC[C@H](Oc2nc(-c3ccc(O)c(F)c3)cc3[nH]ncc23)C1 [Compound 1-27] | – | – | – | – | – | A (a value of 3 or above) | > 100 | 10 to 100 | > 100 | – | < 0.1 | – | – | 31.6 to 200
C=CC(=O)N1CC(COc2cc(-c3ccc(O)cc3)cc3[nH]nnc23)C1 [Compound 17-1] | E (a pKi value of 7 or below (Ki of 100 nM or above)) | E (a pKi value of 7 or below (Ki of 100 nM or above)) | E (a pKi value of 7 or below (Ki of 100 nM or above)) | – | B (a pKi value between 9 and 10 (Ki between 1 nM and 0.1 nM)) | – | – | – | – | – | – | A (a value of 3 or above) | B (a pIC50 value between 6.7 (included) and 7.5 (IC50 between 200 nM and 32 nM)) | –
CN(C)C/C=C/C(=O)N1CC(F)(C2(Oc3cc(-c4ccc(O)cc4)cc4[nH]ncc34)CC2)C1 [Compound 12-36] | – | – | – | – | – | – | 10 to 100 | > 100 | > 100 | < 31.6 | < 0.1 | A (a value of 3 or above) | – | –
CN(C)C/C=C/C(=O)N1CC2(CC(Oc3cc(-c4ccc(O)c(F)c4)cc4[nH]ncc34)C2)C1 [Compound 15-5] | D (a pKi value between 7 and 8 (Ki between 100 nM and 10 nM)) | D (a pKi value between 7 and 8 (Ki between 100 nM and 10 nM)) | E (a pKi value of 7 or below (Ki of 100 nM or above)) | – | B (a pKi value between 9 and 10 (Ki between 1 nM and 0.1 nM)) | – | – | – | – | – | – | B (a value of 2.3 to 3) | B (a pIC50 value between 6.7 (included) and 7.5 (IC50 between 200 nM and 32 nM)) | –
CN(C)C/C=C/C(=O)N1CC(C)(COc2cc(-c3ccc(O)cc3)cc3[nH]ncc23)C1 [Compound 3-7] | – | – | – | – | – | A (a value of 3 or above) | > 100 | 10 to 100 | > 100 | – | < 0.1 | – | – | 31.6 to 200
C=CC(=O)N1CCC(C#N)(C(=O)Nc2cc(-c3ccc(O)cc3)cc3[nH]ncc23)CC1 [Compound 12-41] | – | – | – | – | – | – | > 100 | > 100 | > 100 | < 31.6 | 0.1 to 1 | A (a value of 3 or above) | – | –
C=CC(=O)N1CC(OCc2cc(-c3ccc(O)c(F)c3)cc3[nH]ncc23)C1 [Compound 16-3] | E (a pKi value of 7 or below (Ki of 100 nM or above)) | E (a pKi value of 7 or below (Ki of 100 nM or above)) | E (a pKi value of 7 or below (Ki of 100 nM or above)) | – | B (a pKi value between 9 and 10 (Ki between 1 nM and 0.1 nM)) | – | – | – | – | – | – | A (a value of 3 or above) | A (a pIC50 value≥7.5 (IC50≤32 nM)) | –
C=CC(=O)N1CCC(Sc2cc(-c3ccc(O)cc3)cc3[nH]ncc23)CC1 [Compound 12-4] | – | – | – | – | – | – | > 100 | > 100 | > 100 | 31.6 to 200 | 0.1 to 1 | A (a value of 3 or above) | – | –
COC(CN(C)C/C=C/C(=O)N1CC(COc2cc(-c3ccc(O)cc3)cc3[nH]ncc23)C1)OC [Compound 3-121] | – | – | – | – | – | A (a value of 3 or above) | > 100 | 10 to 100 | > 100 | – | 0.1 to 1 | – | – | 31.6 to 200
C=CC(=O)N1CCOC[C@H]1C(=O)Nc1cc(-c2ccc(O)cc2)cc2[nH]ncc12 [Compound 12-63] | – | – | – | – | – | – | > 100 | > 100 | > 100 | 31.6 to 200 | 0.1 to 1 | A (a value of 3 or above) | – | –
